Consider five compounds from US20260001928A1 (CORTERIA PHARMACEUTICALS, priority 2022, published 2026).

For orientation: EC50 means the concentration giving half of the maximal effect.

Test [1] deals with T1, CFR1R receptor (Homo sapiens, UniProt P34998).
T1 construct: host or cells: CHO-K1 (clone 2)
T1 sequence (P34998 24-415): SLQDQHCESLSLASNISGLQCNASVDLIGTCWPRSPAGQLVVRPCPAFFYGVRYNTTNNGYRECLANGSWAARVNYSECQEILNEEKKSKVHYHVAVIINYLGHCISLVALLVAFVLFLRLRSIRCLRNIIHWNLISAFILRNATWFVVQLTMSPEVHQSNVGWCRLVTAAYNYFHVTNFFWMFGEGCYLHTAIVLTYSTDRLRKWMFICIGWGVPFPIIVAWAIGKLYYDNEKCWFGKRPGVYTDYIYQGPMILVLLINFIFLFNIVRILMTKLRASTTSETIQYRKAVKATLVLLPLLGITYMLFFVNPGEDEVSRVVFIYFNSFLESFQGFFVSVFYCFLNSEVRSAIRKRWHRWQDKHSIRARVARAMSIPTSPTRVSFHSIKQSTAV
The test is described as follows: Activity at anti-target CFR1R receptor, cAMP assay in CRF1R-overexpression CHO-K1 cells. The note with it: 100% = Sauvagine at 100 nM; for EC50: cAMP. In kind it is cell-based. An outline of the steps:
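The method mirrors that used with TeloHAEC cells. Here, thawed clone 2 cells seeded at 4000 cells/well are tested, and 100 nM Sauvagine sets the top of the activation scale.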

For test [2], the target named is T2, human CRF2a receptor (Homo sapiens, UniProt Q13324).
T2 construct: expressed in transfected cells; host or cells: TeloHEAC cells
T2 sequence (Q13324 1-411): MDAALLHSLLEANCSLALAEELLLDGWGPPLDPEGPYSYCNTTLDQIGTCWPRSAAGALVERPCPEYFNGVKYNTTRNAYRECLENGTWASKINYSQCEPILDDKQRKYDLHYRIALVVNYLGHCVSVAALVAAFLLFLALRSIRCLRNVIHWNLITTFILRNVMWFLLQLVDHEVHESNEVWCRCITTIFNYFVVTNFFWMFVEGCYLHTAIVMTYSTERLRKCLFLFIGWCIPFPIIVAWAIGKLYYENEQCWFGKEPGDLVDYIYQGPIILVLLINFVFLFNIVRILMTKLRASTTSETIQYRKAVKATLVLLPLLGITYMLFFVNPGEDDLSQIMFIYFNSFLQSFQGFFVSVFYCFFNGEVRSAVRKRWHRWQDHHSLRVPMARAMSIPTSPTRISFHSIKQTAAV
Nature of the test: Activity at human CRF2a receptor, cAMP functional assay in TeloHEAC cells. It counts as cell-based. The note with it: TeloHEAC cells stably expressing human CRF2a receptor, relative to urocortin 2 (100 nM = 100%). An outline of the steps: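 TeloHEAC cells stably expressing human CRF2a (10000 cells/well) were treated with 16-point 1:2 compound dilutions in HBSS/20 mM HEPES with IBMX for 30 min at 37° C. cAMP was read by HTRF (665/620 nm ratio). EC50 was the concentration giving 50% activation, with 100 nM urocortin 2 set as 100%.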

Each structure is given as a SMILES string. *1 amine or outer side, *2 acyl side, *3 side chain or, on linkers, in order; H or OH if unused. Where a SMILES comes first, the peptide text is derived from it. Side-chain parts run from the residue outwards. [ ]: non-standard residue; d: D form. The star is where a group is joined. C20 diacid = O=C(O)CCCCCCCCCCCCCCCCCCC(=O)*; C16 diacid = O=C(O)CCCCCCCCCCCCCCC(=O)*; γGlu = O=C(O)[C@H](CCC(=O)[*:2])N[*:1]; C14 diacid = O=C(O)CCCCCCCCCCCCC(=O)*; NMeI = CC[C@H](C)[C@H](NC)C(=O)O; Api = NC1(C(=O)O)CCNCC1; Aib = CC(C)(N)C(=O)O Where only a bound is given, the exact number is not on record here.

Turning to `CC[C@H](C)[C@H](NC(C)=O)C(=O)N[C@H](C(=O)N[C@@H](CC(C)C)C(=O)N[C@@H](CO)C(=O)N[C@@H](CC(C)C)C(=O)N[C@@H](CC(=O)O)C(=O)N[C@@H](C(=O)N1CCC[C@H]1C(=O)N[C@H](C(=O)N[C@@H](CCCCN)C(=O)N[C@@H](CC(C)C)C(=O)N[C@@H](CCCCNC(=O)CC[C@H](NC(=O)CC[C@H](NC(=O)CCCCCCCCCCCCCCCCCCC(=O)O)C(=O)O)C(=O)O)C(=O)N[C@@H](CCCCN)C(=O)N[C@H](C(=O)N[C@@H](CC(C)C)C(=O)N[C@@H](CC(C)C)C(=O)N[C@@H](CCC(=O)O)C(=O)N[C@@H](CCC(N)=O)C(=O)N[C@@H](CCC(=O)O)C(=O)N[C@@H](CCCCN)C(=O)N[C@@H](CCC(N)=O)C(=O)N[C@@H](CCCCN)C(=O)N[C@@H](C)C(=O)N[C@@H](CCC(N)=O)C(=O)N[C@@H](CCCNC(=N)N)C(=O)N[C@@H](CCC(=O)O)C(=O)N[C@@H](CCC(N)=O)C(=O)N[C@@H](C)C(=O)N[C@@H](CCC(=O)O)C(=O)N[C@H](C(=O)N[C@@H](CC(N)=O)C(=O)NC(C)(C)C(=O)N[C@@H](CCC(N)=O)C(=O)N[C@H](C(=O)N[C@@H](CC(C)C)C(=O)N[C@@H](C)C(=O)N[C@@H](CCC(N)=O)C(=O)N[C@H](C(N)=O)C(C)C)[C@@H](C)CC)[C@@H](C)O)[C@@H](C)CC)[C@@H](C)CC)C(C)C)C(C)C` [compound 244] (Ac-IVLSLD[dV]PIKLK([γGlu-γGlu-C20 diacid])KILLEQEKQKAQREQAETN[Aib]QILAQV-NH2), in test [1], the “Emax (% I)” value is listed as 8 % I and the EC50 is > 250 nM. In test [2], this compound returned an EC50 of 0.28 nM.
In the case of `CC[C@H](C)[C@H](NC(C)=O)C(=O)N[C@H](C(=O)N[C@@H](CC(C)C)C(=O)N[C@@H](CO)C(=O)N[C@@H](CC(C)C)C(=O)N[C@@H](CC(=O)O)C(=O)N[C@@H](C(=O)N1CCC[C@H]1C(=O)N[C@H](C(=O)N[C@@H](CCCCN)C(=O)N[C@@H](CC(C)C)C(=O)N[C@@H](CCCCNC(=O)CC[C@H](NC(=O)CCCCCCCCCCCCCCC(=O)O)C(=O)O)C(=O)N[C@@H](CCCCN)C(=O)N[C@H](C(=O)N[C@@H](CC(C)C)C(=O)N[C@@H](CC(C)C)C(=O)N[C@@H](CCC(=O)O)C(=O)N[C@@H](CCC(N)=O)C(=O)N[C@@H](CCC(=O)O)C(=O)N[C@@H](CCCCN)C(=O)N[C@@H](CCC(N)=O)C(=O)N[C@@H](CCCCN)C(=O)N[C@@H](CCCCN)C(=O)N[C@@H](CCC(N)=O)C(=O)N[C@@H](C)C(=O)N[C@@H](CCC(=O)O)C(=O)N[C@@H](CCC(N)=O)C(=O)N[C@@H](C)C(=O)N[C@@H](CCC(=O)O)C(=O)N[C@H](C(=O)N[C@@H](CC(N)=O)C(=O)NC(C)(C)C(=O)N[C@@H](CCC(N)=O)C(=O)N[C@H](C(=O)N[C@@H](CC(C)C)C(=O)N[C@@H](C)C(=O)N[C@@H](CCC(N)=O)C(=O)N[C@H](C(N)=O)C(C)C)[C@@H](C)CC)[C@@H](C)O)[C@@H](C)CC)[C@@H](C)CC)C(C)C)C(C)C` [compound 167] (Ac-IVLSLD[dV]PIKLK([γGlu-C16 diacid])KILLEQEKQKKQAEQAETN[Aib]QILAQV-NH2), in test [1], the “Emax (% I)” value was 7 % I and the 50% effective concentration (EC50) is > 250 nM. For the same compound, the EC50 in test [2] was 1.15 nM.
Regarding `CC[C@H](C)[C@H](NC(C)=O)C(=O)N[C@H](C(=O)N[C@@H](CC(C)C)C(=O)N[C@@H](CO)C(=O)N[C@@H](CC(C)C)C(=O)N[C@@H](CC(=O)O)C(=O)N[C@@H](C(=O)N1CCC[C@H]1C(=O)N[C@H](C(=O)N[C@@H](CCCCN)C(=O)N[C@@H](CC(C)C)C(=O)N[C@@H](CCCCNC(=O)CC[C@H](NC(=O)CCCCCCCCCCCCCCCCCCC(=O)O)C(=O)O)C(=O)N[C@@H](CCCCN)C(=O)N[C@H](C(=O)N[C@@H](CC(C)C)C(=O)N[C@@H](CC(C)C)C(=O)N[C@@H](CCC(=O)O)C(=O)N[C@@H](CCC(N)=O)C(=O)N[C@@H](CCC(=O)O)C(=O)N[C@@H](CCCCN)C(=O)N[C@@H](CCC(N)=O)C(=O)N[C@@H](CCCCN)C(=O)NC(C)(C)C(=O)N[C@@H](CCC(N)=O)C(=O)N[C@@H](CCCNC(=N)N)C(=O)N[C@@H](CCC(=O)O)C(=O)N[C@@H](CCC(N)=O)C(=O)N[C@@H](C)C(=O)N[C@@H](CCC(=O)O)C(=O)N[C@H](C(=O)N[C@@H](CC(N)=O)C(=O)NC1(C(=O)N[C@@H](CCC(N)=O)C(=O)N[C@H](C(=O)N[C@@H](CC(C)C)C(=O)N[C@@H](C)C(=O)N[C@@H](CCC(N)=O)C(=O)N[C@H](C(N)=O)C(C)C)[C@@H](C)CC)CCNCC1)[C@@H](C)O)[C@@H](C)CC)[C@@H](C)CC)C(C)C)C(C)C` [compound 208] (Ac-IVLSLD[dV]PIKLK([γGlu-C20 diacid])KILLEQEKQK[Aib]QREQAETN[Api]QILAQV-NH2), the “Emax (% I)” value in test [1] is 63 % I. Moreover, the half-maximal effective concentration (EC50) in test [2] came out at 0.15 nM.
As to `CC[C@H](C)[C@H](NC)C(=O)N[C@H](C(=O)N[C@@H](CC(C)C)C(=O)N[C@@H](CO)C(=O)N[C@@H](CC(C)C)C(=O)N[C@@H](CC(=O)O)C(=O)N[C@@H](C(=O)N1CCC[C@H]1C(=O)N[C@H](C(=O)N[C@@H](CCCCN)C(=O)N[C@@H](CC(C)C)C(=O)N[C@@H](CCCCNC(=O)CC[C@H](NC(=O)CCCCCCCCCCCCCCC(=O)O)C(=O)O)C(=O)N[C@@H](CCC(N)=O)C(=O)N[C@H](C(=O)N[C@@H](CC(C)C)C(=O)N[C@@H](CC(C)C)C(=O)N[C@@H](CCCCN)C(=O)N[C@@H](CCC(N)=O)C(=O)N[C@@H](CCC(=O)O)C(=O)N[C@@H](CCCNC(=N)N)C(=O)N[C@@H](CCC(N)=O)C(=O)N[C@@H](CCCCN)C(=O)N[C@@H](CCCCN)C(=O)N[C@@H](CCC(N)=O)C(=O)N[C@@H](CCCNC(=N)N)C(=O)N[C@@H](CCC(=O)O)C(=O)N[C@@H](CCC(N)=O)C(=O)N[C@@H](C)C(=O)N[C@@H](CCC(=O)O)C(=O)N[C@@H](CCCCN)C(=O)N[C@@H](CC(N)=O)C(=O)N[C@@H](CCCCN)C(=O)N[C@@H](CCC(N)=O)C(=O)N[C@H](C(=O)N[C@@H](CC(C)C)C(=O)N[C@@H](CCC(=O)O)C(=O)N[C@@H](CCC(N)=O)C(=O)N[C@H](C(N)=O)C(C)C)[C@@H](C)CC)[C@@H](C)CC)[C@@H](C)CC)C(C)C)C(C)C` [SEQ ID No. 5, reference compound] (H-[NMeI]VLSLD[dV]PIKLK([γGlu-C16 diacid])QILLKQERQKKQREQAEKNKQILEQV-NH2), in test [1], the “Emax (% I)” value was 48 % I. This compound gave an EC50 in test [2] of 0.09 nM.
Take `CC[C@H](C)[C@H](NC)C(=O)N[C@H](C(=O)N[C@@H](CC(C)C)C(=O)N[C@@H](CO)C(=O)N[C@@H](CC(C)C)C(=O)N[C@@H](CC(=O)O)C(=O)N[C@@H](C(=O)N1CCC[C@H]1C(=O)N[C@H](C(=O)N[C@@H](CCCCN)C(=O)N[C@@H](CC(C)C)C(=O)N[C@@H](CCCCNC(=O)CC[C@H](NC(=O)CCCCCCCCCCCCC(=O)O)C(=O)O)C(=O)N[C@@H](CCCCN)C(=O)N[C@H](C(=O)N[C@@H](CC(C)C)C(=O)N[C@@H](CC(C)C)C(=O)N[C@@H](CCC(=O)O)C(=O)N[C@@H](CCC(N)=O)C(=O)N[C@@H](CCC(=O)O)C(=O)N[C@@H](CCCCN)C(=O)N[C@@H](CCC(N)=O)C(=O)N[C@@H](CCCCN)C(=O)NC(C)(C)C(=O)N[C@@H](CCC(N)=O)C(=O)N[C@@H](CCCNC(=N)N)C(=O)N[C@@H](CCC(=O)O)C(=O)N[C@@H](CCC(N)=O)C(=O)N[C@@H](C)C(=O)N[C@@H](CCC(=O)O)C(=O)N[C@H](C(=O)N[C@@H](CC(N)=O)C(=O)NC(C)(C)C(=O)N[C@@H](CCC(N)=O)C(=O)N[C@H](C(=O)N[C@@H](CC(C)C)C(=O)N[C@@H](C)C(=O)N[C@@H](CCC(N)=O)C(=O)N[C@H](C(N)=O)C(C)C)[C@@H](C)CC)[C@@H](C)O)[C@@H](C)CC)[C@@H](C)CC)C(C)C)C(C)C` [compound 177] (H-[NMeI]VLSLD[dV]PIKLK([γGlu-C14 diacid])KILLEQEKQK[Aib]QREQAETN[Aib]QILAQV-NH2): in test [1], the “Emax (% I)” value is listed as 10 % I and the EC50 was > 250 nM. For the same compound, the concentration for a half-maximal effect (EC50) in test [2] is 0.86 nM.
